“Also recorded” adds a separate entry of the source.
What was measured:
GalT = biological target: T1, GalT (Bos taurus, UniProt P08037); conditions: relative to Gal; cited from earlier work
T1 sequence (P08037 1-402): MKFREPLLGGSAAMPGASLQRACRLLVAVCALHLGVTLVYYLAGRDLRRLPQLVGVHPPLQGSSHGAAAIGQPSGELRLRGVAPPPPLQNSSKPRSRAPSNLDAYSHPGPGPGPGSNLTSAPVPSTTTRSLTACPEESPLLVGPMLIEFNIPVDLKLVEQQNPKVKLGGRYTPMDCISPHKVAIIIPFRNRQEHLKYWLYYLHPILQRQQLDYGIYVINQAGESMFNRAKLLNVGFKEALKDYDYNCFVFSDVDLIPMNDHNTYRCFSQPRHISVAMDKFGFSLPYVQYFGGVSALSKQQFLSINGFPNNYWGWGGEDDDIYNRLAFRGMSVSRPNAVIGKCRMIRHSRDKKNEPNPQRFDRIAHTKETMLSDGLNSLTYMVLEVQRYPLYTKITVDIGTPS

Y289L GalT = biological target: T2, Y289L GalT (Bos taurus, UniProt P08037, Y289L); assay: Transfer of keto-sugar from labeling agent 1 to O-GlcNAc peptide by Y289L mutant GalT, LC-MS; format: biochemical; conditions: peptide TAPTS(O-GlcNAc)TIAPG, 6 h at 4° C., diammonium salt
T2 construct: made in house
T2 sequence (P08037 1-402 Y289L): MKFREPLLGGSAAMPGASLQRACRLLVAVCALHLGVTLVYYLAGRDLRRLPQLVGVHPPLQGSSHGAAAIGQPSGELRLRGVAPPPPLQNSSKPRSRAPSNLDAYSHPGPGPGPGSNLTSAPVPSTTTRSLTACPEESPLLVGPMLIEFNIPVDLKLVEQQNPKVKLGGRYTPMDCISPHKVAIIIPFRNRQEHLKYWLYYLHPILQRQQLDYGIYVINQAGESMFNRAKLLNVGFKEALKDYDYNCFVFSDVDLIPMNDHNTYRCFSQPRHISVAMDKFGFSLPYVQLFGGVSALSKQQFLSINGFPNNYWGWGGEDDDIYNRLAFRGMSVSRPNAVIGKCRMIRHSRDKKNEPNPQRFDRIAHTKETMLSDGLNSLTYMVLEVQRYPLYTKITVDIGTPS
Description: The peptide TAPTS(O-GlcNAc)TIAPG (SEQ ID NO: 1) (10 μM) was dissolved in 25 mM MOPS buffer, pH 6.7 containing 5 mM MnCl2 and 8 μM reference peptide (ThermoFinnigan, San Jose, Calif.). Labeling agent 1 and mutant Y289L GalT were added to final concentrations of 1 mM and 100 ng/μL, respectively. Prior to enzyme addition, an aliquot of the—reaction was removed as an initial time point for LC-MS analysis. Reactions were incubated at 4° C. for 6 h, after which an aliquot of the reaction mixture was removed for product analysis by LC-MS. The remainder of the reaction was diluted 5-fold into PBS (final concentration: 10.1 mM Na2HPO4, 1.76 mM KH2HPO4, […], 2.7 mM KCl, pH 6.7), and N-(aminooxyacetyl)-N′-(D-biotinoyl) hydrazine (Molecular Probes, Eugene, Oreg.) was added to a final concentration of 12 mM. After 8 h at 25° C., the extent of biotin-oxime product was measured by LC-MS. […] Labeling reactions with wild-type GalT were performed identically, with the exception that reactions were incubated at 37° C. for 12 h. […]
Base peak chromatograms are shown before and 6 h after the addition of ketone analogue 1 and Y289L GalT. […] For reaction with detection agent aminooxy biotin, formation of the oxime product was monitored using an extracted ion chromatogram within the mass range 1319.0-1321.0 m/z and 1633.0-1635.5 m/z, which was generated post-acquisition via the Xcalibur™ software. […]

[1] = test system: O-GlcNAc pendant moiety on α-crystallin; assay: Western / lectin blotting of α-crystallin with existing O-GlcNAc detection reagents; format: binding, bovine; conditions: blot, chemiluminescence, even when 10 μg of α-crystallin was used
Description: α-Crystallin, and appropriate positive and negative controls were resolved by 15% SDS-PAGE. All Western blotting steps were performed at RT unless otherwise noted. […] RL-2 antibody, at a concentration of 1:2000, was subsequently added in blocking buffer and blots were incubated for 1.5-2 h. Blots were then rinsed with hsTBST and washed 6×5 min. Secondary goat anti-mouse IgG antibody was applied at a concentration of 1:10,000 in hsTBS-T containing 1% BSA. After 1 h, blots were rinsed and washed as described before chemiluminescence detection on film (FIG. 11A). Western blotting with the CTD110.6 antibody was performed according to manufacturer's recommendations. Briefly, α-crystallin and controls were transferred to PVDF and washed 2×15 min with TBS-0.1% tween-20 (TBST). Blots were blocked in TBST containing 3% BSA for 1 h, rinsed 2× with TBST, and probed with CTD110.6 (1:2500) in blocking buffer for 1 h. Blots were then rinsed 2× with TBST and washed 2×5 min. Secondary goat anti-mouse IgM antibody was applied at a concentration of 1:10,000 in blocking buffer for 1 h, and blots were subsequently rinsed with TBST and washed 5×5 min before chemiluminescence detection on film (FIG. 11B).
WGA western blotting was performed essentially as described (25, 27). Briefly, α-crystallin and controls were resolved by 15% SDS-PAGE and electrophoretically transferred to nitrocellulose. […]

In the case of `OCC1OC(O)CC(O)[C@H]1O` (stereo partly drawn) [2-deoxy-Gal], the “rate of transfer by GalT” value (GalT) is listed as “rates comparable to Gal”.

For “Uridine 5′-diphospho-2-acetonyl-2deoxy-a-D-galactopyranose diammonium salt [Labeling agent 1]”, the “conversion of peptide to ketone-labeled product” value (Y289L GalT) was “Complete conversion”.

B1: WGA: wheat-germ agglutinin lectin, existing method to detect GlcNAc (protein)
chain: QRCGEQGSNMECPNNLCCSQYGYCGMGGDYCGKGCQNGACWTSKRCGSQAGGATCTNNQCCSQYGYCGFGAEYCGAGCQGGPCRADIKCGSQAGGKLCPNNLCCSQWGFCGLGSEFCGGGCQSGACSTDKPCGKDAGGRVCTNNYCCSKWGSCGIGPGYCGAGCQSGGCDG
In the case of B1, the “detection of O-GlcNAc on α-crystallin” value [1] is reported as “failed to detect; also recorded: could not detect”.
